Data taken from US10987349B2, “Antitumor agent and bromodomain inhibitor” (FUJIFILM Corporation, priority 2016, dated 2021).

Legend:
HCT-15 = assay: Cell growth test (Cell Titer Blue) HCT-15; assay type: cell-based; conditions: Homo sapiens, 72 h, HCT-15, Colon cancer, 3 days
Protocol: (§1) Moreover, the compound of Example 14 was subjected to a cell growth test using various types of cell lines.
(§2) All cell lines other than the below-noticed cells were each seeded in a well plate, in which an RPMI-1640 medium supplemented with penicillin/streptomycin and FBS with a final concentration of 10% was placed. The human prostate cancer cell line VCaP (ATCC) was seeded in a well plate, in which DMEM medium supplemented with penicillin/streptomycin and FBS with a final concentration of 10% was placed. […] Thereafter, using Enspire Multimode Plate Reader (PerkinElmer), the amount of fluorescence at an excitation wavelength of 531 nm and a fluorescence wavelength of 615 nm was measured. Since the amount of fluorescence is in proportion to the concentration of a florescent product resorufin that is converted from resazurin as a redox dye by living cells, the amount of fluorescence was used as an indicator of the number of living cells. The growth inhibition percentage of the test compound in each concentration was calculated according to the following equation. Growth inhibition percentage (%)=(amount of fluorescence in test compound−added well)/(amount of fluorescence in DMSO−added well)×100 […]

SW-620 = assay: Cell growth test (Cell Titer Blue) SW-620; assay type: cell-based; conditions: Homo sapiens, 72 h, SW-620, Colon cancer, 3 days
Protocol: as §1, §2

MKN45 = assay: Cell growth test (Cell Titer Blue) MKN45; assay type: cell-based; conditions: Homo sapiens, MKN-45, 72 h, MKN45, Stomach cancer, 3 days
Protocol: as §1, §2

MOLT-4 = assay: Cell growth test (Cell Titer Blue) MOLT-4; assay type: cell-based; conditions: Homo sapiens, 72 h, MOLT-4, Acute lymphoblastic leukemia, 3 days
Protocol: as §1, §2

Raji = assay: Cell growth test (Cell Titer Blue) Raji; assay type: cell-based; conditions: Homo sapiens, 72 h, Lymphoma (DSMZ), 3 days
Protocol: as §1, §2

MDA-MB-231 = assay: Cell growth test (Cell Titer Blue) MDA-MB-231; assay type: cell-based; conditions: Homo sapiens, 72 h, MDA-MB-231, Breast cancer, 3 days
Protocol: as §1, §2

MM.1S = assay: Cell growth test (Cell Titer Blue) MM.1S; assay type: cell-based; conditions: Homo sapiens, MM1.S, 72 h, Myeloma, 3 days
Protocol: as §1, §2

A2780 = assay: Cell growth test (Cell Titer Blue) A2780; assay type: cell-based; conditions: Homo sapiens, 72 h, A2780, Ovarian cancer, 3 days
Protocol: as §1, §2

LNCaP = assay: Cell growth test (Cell Titer Blue) LNCaP; assay type: cell-based; conditions: Homo sapiens, 72 h, Prostate cancer, 3 days
Protocol: as §1, §2

IL-7R gene = assay: Expression of IL-7R gene in MV4-11 cells, RT-PCR; assay type: cell-based, human; conditions: MV4-11 cells, 10, 30 or 100 nmol/L, 6 hours
Protocol: (§3) A fluctuation in the expression of c-Myc, IL-7R and HEXIM1 genes in MV4-11 (ATCC) cells treated with the test compound was analyzed according to a reverse transcription polymerase chain reaction (RT-PCR) method.
(§4) MV4-11 cells were cultured for 6 hours in an RPMI-1640 medium supplemented with penicillin/streptomycin and FBS with a final concentration of 10%, to which the compound of Example 14 was added to a concentration of 10 nmol/L, 30 nmol/L or 100 nmol/L. On the other hand, a non-treatment group (Non-treatment) was established by culturing MV4-11 cells for 6 hours in the above-described medium, to which the compound of Example 14 was not added. Using Rneasy (registered trademark) (Qiagen), RNA was extracted from the above-described MV4-11 cells in accordance with the instruction manual included with the aforementioned device. […] Thereafter, a PCR reaction was carried out for 40 cycles (a cycle consisting of 95° C.-5 seconds and 60° C.-30 seconds.) Subsequently, the obtained reaction product was measured.
(§5) As a housekeeping gene, the expression level of GAPDH (Glyceraldehyde 3-phosphate dehydrogenase) was also evaluated. The ratio of the expression level of the mRNA of each of c-Myc, IL-7R and HEXIM1 to the expression level of GAPDH was calculated, and the expression level of each gene (relative expression level) was then quantified. […]

HEXIM1 gene = assay: Expression of HEXIM1 gene in MV4-11 cells, RT-PCR; assay type: cell-based, human; conditions: MV4-11 cells, 10, 30 or 100 nmol/L, 6 hours
Protocol: as §3, §4, §5

## CCn1c(=O)cc(C2CCN(C)CC2)c2cc(C(=O)N(C)c3ccc(C)cc3)ccc21 [Example 14, 1-Ethyl-N-methyl-N-(4-methylphenyl)-4-(1-methylpiperidin-4-yl)-2-oxo-1,2-dihydroquinoline-6-carboxamide]
HCT-15
  GI50: 0.505 µM
SW-620
  GI50: 0.273 µM
MKN45
  GI50: 2.18 µM
MOLT-4
  GI50: 0.057 µM
Raji
  GI50: 0.203 µM
MDA-MB-231
  GI50: 0.085 µM
MM.1S
  GI50: 0.084 µM
A2780
  GI50: 0.582 µM
LNCaP
  GI50: 0.064 µM
IL-7R gene
  mRNA expression of IL-7R (GAPDH correction): decreased in a compound concentration-dependent manner
HEXIM1 gene
  mRNA expression of HEXIM1 (GAPDH correction): increased
